In US8987217B2, “Modified saponins for the treatment of fungal infections” (The General Hospital Corporation, priority 2010, dated 2015):
Where two headings read alike, the source gives them in different places.

Tested on: C. albicans strains
Assay: MIC by standard CLSI microdilution protocol M27-A
Assay type: cell-based
Procedure: Using the standard Clinical and Laboratory Standards Institute (CLSI) procedure, the in vitro MIC of these two compounds was determined on the following C. albicans strains: DAY185 (the standard strain used throughout the screen), two fluconazole-resistant strains of C. albicans, and an echinocandin-resistant strain of C. albicans (Table 2).
The minimal inhibitory concentration (MIC) was determined for strains DAY185, 98-145, 95-120 (White et al., Antimicrob Agents Chemother, 46:1704-1713 (2002)), and A15-10 (Garcia-Effron et al., Antimicrob Agents Chemother, 53:112-122 (2009)) spectrophotometrically using RPMI 1640 media (Mediatech, Inc.) following the standard CLSI microdilution protocol M27-A (National Committee for Clinical Laboratory Standards, Reference method for broth dilution susceptibility testing of yeasts. Tentative standard M27-A, Villanova, Pa. (1995)). Biofilm assays using identified compounds were conducted as previously described (Richard et al., Eukaryot Cell, 4:1493-1502 (2005)). The biofilm dry mass was determined by drying the silicone squares in a chemical hood, and weighing the resulting biofilm mass subtracting the previously weighed mass of the silicone square. Biofilm pictures were captured using a confocal laser microscope (TCS NT, Leica Microsystems). Cells were grown at 30° C., exposed to PS for 30 min, and then washed with PBS.

CC1CC[C@@]2(OC1)O[C@H]1CC3C4C[C@@H](O)C5C[C@@H](O[C@@H]6O[C@H](CO)[C@H](O[C@@H]7O[C@H](CO)[C@@H](O)[C@H](O[C@@H]8OC[C@@H](O)[C@H](O)[C@H]8O)[C@H]7O[C@@H]7O[C@H](CO)[C@@H](O)[C@H](O)[C@H]7O)[C@H](O)[C@H]6O)[C@H](O)C[C@]5(C)C4CC[C@]3(C)[C@H]1[C@@H]2C (stereo partly drawn) [A16, Aginoside]
16 µg/mL: MIC | MIC (C. albicans DAY185) | MIC (echinocandin-resistant strain A15)
